ChEMBL document CHEMBL3044837, “Synthesis and pharmacological investigation of novel 2-substituted-3-carboxamido-4H-pyrimidobenzothiazole derivatives as a new class of H1-antihistaminic agent” (Med Chem Res, 2013)

Test system: Mus musculus
Experiment: Sedative activity in Mus musculus Swiss albino (mouse) at 10 mg/kg, ip after 1 hr relative to control
Format: organism-based
Set-up: dose 10 mg/kg, route intraperitoneal
Settings: in vivo

SMILES | Activity [%]
CCN1CCN(c2nc3sc4cc(Cl)ccc4n3c(=O)c2C(N)=O)CC1 | 22.66
NC(=O)c1c(N2CCCC2)nc2sc3ccccc3n2c1=O | 33.33
NC(=O)c1c(N2CCCCC2)nc2sc3ccccc3n2c1=O | 23.61
NC(=O)c1c(N2CCN(CCO)CC2)nc2sc3ccccc3n2c1=O | 36.47
CCN1CCN(c2nc3sc4ccccc4n3c(=O)c2C(N)=O)CC1 | 26.43
NC(=O)c1c(N2CCOCC2)nc2sc3cc(Cl)ccc3n2c1=O | 23.17
NC(=O)c1c(N2CCN(CCO)CC2)nc2sc3cc(Cl)ccc3n2c1=O | 30.37
CN1CCN(c2nc3sc4ccccc4n3c(=O)c2C(N)=O)CC1 | 35.21
CN(C)CCNc1nc2sc3ccccc3n2c(=O)c1C(N)=O | 36.25
CN1CCN(c2nc3sc4cc(Cl)ccc4n3c(=O)c2C(N)=O)CC1 | 32.92
CN(C)CCC(c1ccc(Cl)cc1)c1ccccn1.O=C(O)/C=C\C(=O)O (stereo not given) [CHLORPHENIRAMINE MALEATE] | 69.01
NC(=O)c1c(N2CCOCC2)nc2sc3ccccc3n2c1=O | 24.32
CN(C)CCNc1nc2sc3cc(Cl)ccc3n2c(=O)c1C(N)=O | 25.97
NC(=O)c1c(N2CCCCC2)nc2sc3cc(Cl)ccc3n2c1=O | 20.51
NC(=O)c1c(N2CCCC2)nc2sc3cc(Cl)ccc3n2c1=O | 38.27
